Experimental data from patent publication US9187472B2 (AbbVie Inc., priority 2012, dated 2015).

Key:
PC3 cells = experiment: NAMPT Cell Proliferation Assay; format: cell-based; conditions: Homo sapiens, PC-3, 120 h, 5 days incubation, cell viability by Cell Titer Glo
Procedure, shortened: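 PC3 cells were plated at 500 cells/well in RPMI with 10% heat-inactivated FBS, left to attach overnight, then given compounds in 10-fold dilutions from 10 μM to 1×10^−5 μM. After 5 days at 37° C and 5% CO2, viability was read by luminescence and IC50s came from sigmoidal fits of percent inhibition.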

[1] = biological target: NAMPT (human, recombinant, C-terminally His-tagged) (Homo sapiens, UniProt P43490); experiment: Time-Resolved Fluorescence Resonance Energy Transfer (TR-FRET) Binding Assay of NAMPT; conditions: without substrates; 6.8 nM NAMPT, 200 nM probe, 3 hours equilibration
Procedure, shortened: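 Read-out is the time-resolved FRET ratio Em520/Em495 (excitation 337 nm) between a terbium anti-His antibody (1 nM) on the enzyme and an Oregon Green 488-labelled nicotinamide-competitive inhibitor probe (200 nM). Enzyme was 6.8 nM, DMSO 2%, pH 7.5 HEPES buffer; 3 h room-temperature equilibration preceded reading.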

NAMPT = NAMPT (Homo sapiens, UniProt P43490); experiment: TR-FRET Binding Assay of NAMPT with PRPP; conditions: with 200 μM PRPP and 2.5 mM ATP; 2 nM NAMPT, 2 nM probe, 16 hours equilibration
Procedure, shortened: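 NAMPT 2 nM + probe 2 nM + Tb-anti-His Ab 1 nM; PRPP 200 μM, ATP 2.5 mM, DMSO 2%; 16 h equilibration before TR-FRET read.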

Chain of NAMPT (P43490 whole entry): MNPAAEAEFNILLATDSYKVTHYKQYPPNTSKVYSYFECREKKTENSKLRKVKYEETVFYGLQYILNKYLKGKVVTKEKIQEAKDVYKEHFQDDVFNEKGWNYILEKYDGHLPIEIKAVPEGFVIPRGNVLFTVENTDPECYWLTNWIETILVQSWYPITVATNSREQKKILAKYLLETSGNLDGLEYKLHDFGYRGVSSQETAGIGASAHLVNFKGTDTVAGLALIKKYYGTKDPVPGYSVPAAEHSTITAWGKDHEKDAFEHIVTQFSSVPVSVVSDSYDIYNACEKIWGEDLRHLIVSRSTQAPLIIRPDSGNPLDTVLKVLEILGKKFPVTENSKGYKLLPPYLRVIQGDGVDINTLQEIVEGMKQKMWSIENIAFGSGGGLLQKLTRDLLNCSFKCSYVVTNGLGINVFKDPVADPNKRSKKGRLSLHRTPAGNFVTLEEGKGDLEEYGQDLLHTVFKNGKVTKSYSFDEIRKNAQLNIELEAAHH
Chain of NAMPT (human, recombinant, C-terminally His-tagged) (P43490 whole entry): as above

Structure (SMILES)	IC50 (PC3 cells)	IC50 [1]	IC50 (NAMPT)
O=C(CC1CCCC1)Nc1ccc(C(=O)NCc2ccc3nccn3c2)c(F)c1 [Example 462, 4-[(cyclopentylacetyl)amino]-2-fluoro-N-(imidazo[1,2-a]pyridin-6-ylmethyl)benzamide]	7.43 nM	59.1 nM	0.266 nM
CC(C)CC(=O)N1CCC(c2ccc(C(=O)NCc3ccn4ccnc4c3)s2)CC1 [Example 263, N-(imidazo[1,2-a]pyridin-7-ylmethyl)-5-[1-(3-methylbutanoyl)piperidin-4-yl]thiophene-2-carboxamide]	2.43 nM	48.6 nM	0.247 nM
Cc1ccsc1C(=O)N1CCC(c2ccc(C(=O)NCc3ccn4ccnc4c3)cc2)C1 (stereo not drawn) [Example 619, N-(imidazo[1,2-a]pyridin-7-ylmethyl)-4-{1-[(3-methylthiophen-2-yl)carbonyl]pyrrolidin-3-yl}benzamide]	3.3 nM	79.3 nM	0.616 nM
O=C(NCc1ccn2ccnc2c1)c1ccc(C2CCN(C(=O)c3ccco3)C2)cc1 (stereo not drawn) [Example 590, 4-[1-(furan-2-ylcarbonyl)pyrrolidin-3-yl]-N-(imidazo[1,2-a]pyridin-7-ylmethyl)benzamide]	189 nM	666 nM	0.734 nM
O=C(Nc1ccc(C2CCN(C(=O)C3CCCO3)CC2)cc1)Nc1ccc2nccn2c1 (stereo not drawn) [Example 113, 1-imidazo[1,2-a]pyridin-6-yl-3-{4-[1-(tetrahydrofuran-2-ylcarbonyl)piperidin-4-yl]phenyl}urea]	93.3 nM	356 nM	0.169 nM
O=C(NCc1ccn2ccnc2c1)c1ccc(C2CCN(C(=O)C(F)(F)c3ccccc3)C2)cc1 (stereo not drawn) [Example 733, 4-{1-[difluoro(phenyl)acetyl]pyrrolidin-3-yl}-N-(imidazo[1,2-a]pyridin-7-ylmethyl)benzamide]	20.2 nM	119 nM	0.712 nM
O=C(NCc1ccn2ccnc2c1)c1ccc(-c2cnn(CCO)c2)s1 [Example 317, 5-[1-(2-hydroxyethyl)-1H-pyrazol-4-yl]-N-(imidazo[1,2-a]pyridin-7-ylmethyl)thiophene-2-carboxamide]	542 nM	317 nM	0.282 nM
CC(C)Cn1cc(-c2ccc(C(=O)NCc3ccn4ccnc4c3)s2)cn1 [Example 174, N-(imidazo[1,2-a]pyridin-7-ylmethyl)-5-[1-(2-methylpropyl)-1H-pyrazol-4-yl]thiophene-2-carboxamide]	1.12 nM	28.3 nM	0.169 nM
COCCNC(=O)N(C[C@H]1CCCO1)c1ncc(C(=O)NCc2ccc3nccn3c2)s1 [Example 153, N-(imidazo[1,2-a]pyridin-6-ylmethyl)-2-{[(2-methoxyethyl)carbamoyl][(2R)-tetrahydrofuran-2-ylmethyl]amino}-1,3-thiazole-5-carboxamide]	3.73 nM	118 nM	1.88 nM
O=C(NCc1ccn2ccnc2c1)c1ccc(C2CCN(C(=O)Cc3ccc(F)cc3)C2)s1 (stereo not drawn) [Example 758, 5-{1-[(4-fluorophenyl)acetyl]pyrrolidin-3-yl}-N-(imidazo[1,2-a]pyridin-7-ylmethyl)thiophene-2-carboxamide]	23.2 nM	132 nM	0.61 nM
CC/C=C(\C)C(=O)N1CCC(c2ccc(C(=O)NCc3ccn4ccnc4c3)s2)C1 (stereo not drawn) [Example 777, N-(imidazo[1,2-a]pyridin-7-ylmethyl)-5-{1-[(2E)-2-methylpent-2-enoyl]pyrrolidin-3-yl}thiophene-2-carboxamide]	1.26 nM	39.4 nM	0.92 nM
O=C(NCc1ccn2ccnc2c1)c1ccc(C2CCN(C(=O)CC3CC3)C2)s1 (stereo not drawn) [Example 756, 5-[1-(cyclopropylacetyl)pyrrolidin-3-yl]-N-(imidazo[1,2-a]pyridin-7-ylmethyl)thiophene-2-carboxamide]	18.9 nM	123 nM	0.609 nM
CC(C)CC(=O)N1CC=C(c2ccc(C(=O)NCc3ccn4ccnc4c3)o2)CC1 [Example 745, N-(imidazo[1,2-a]pyridin-7-ylmethyl)-5-[1-(3-methylbutanoyl)-1,2,3,6-tetrahydropyridin-4-yl]furan-2-carboxamide]	632 nM	994 nM	0.783 nM
Cc1ccc(C(=O)N2CCC(c3ccc(C(=O)NCc4ccn5ccnc5c4)cc3)CC2)cc1 [Example 500, N-(imidazo[1,2-a]pyridin-7-ylmethyl)-4-[1-(4-methylbenzoyl)piperidin-4-yl]benzamide]	21.7 nM	181 nM	0.169 nM
O=C(NCc1ccn2ccnc2c1)Nc1ccc(C2CCN(C(=O)CC3CCCO3)CC2)cc1 (stereo not drawn) [Example 225, 1-(imidazo[1,2-a]pyridin-7-ylmethyl)-3-{4-[1-(tetrahydrofuran-2-ylacetyl)piperidin-4-yl]phenyl}urea]	9.27 nM	155 nM	0.673 nM
COCCNC(=O)N(CC1CCCO1)c1ncc(C(=O)NCc2ccn3ccnc3c2)s1 (stereo not drawn) [Example 138, N-(imidazo[1,2-a]pyridin-7-ylmethyl)-2-{[(2-methoxyethyl)carbamoyl](tetrahydrofuran-2-ylmethyl)amino}-1,3-thiazole-5-carboxamide]	3.83 nM	80.7 nM	0.424 nM
CC(C)CCC(=O)Nc1ccc(NC(=O)NCc2ccc3nccn3c2)cc1 [Example 274, N-(4-{[(imidazo[1,2-a]pyridin-6-ylmethyl)carbamoyl]amino}phenyl)-4-methylpentanamide]	10.4 nM	17.8 nM	0.196 nM
O=C(NCc1cn2ccnc2cn1)c1ccc(C2CCN(C(=O)CC(F)(F)F)CC2)cc1 [Example 815, N-(imidazo[1,2-a]pyrazin-6-ylmethyl)-4-[1-(3,3,3-trifluoropropanoyl)piperidin-4-yl]benzamide]	5.89 nM	53 nM	1.93 nM
CC(C)CC(=O)N(Cc1ccc(C#N)cc1)c1ncc(C(=O)NCc2ccc3nccn3c2)s1 [Example 55, 2-[(4-cyanobenzyl)(3-methylbutanoyl)amino]-N-(imidazo[1,2-a]pyridin-6-ylmethyl)-1,3-thiazole-5-carboxamide]	14.6 nM	364 nM	1.37 nM
O=C(NCCCCC1CCN(C(=O)C2COCCO2)CC1)Nc1ccc2nccn2c1 (stereo not drawn) [Example 63, 1-{4-[1-(1,4-dioxan-2-ylcarbonyl)piperidin-4-yl]butyl}-3-imidazo[1,2-a]pyridin-6-ylurea]	16.8 nM	636 nM	0.283 nM
O=C(NCc1ccn2ccnc2c1)c1ccc(-c2cnn(CCN3CCOCC3)c2)s1 [Example 294, N-(imidazo[1,2-a]pyridin-7-ylmethyl)-5-{1-[2-(morpholin-4-yl)ethyl]-1H-pyrazol-4-yl}thiophene-2-carboxamide]	1.88 nM	44.7 nM	0.169 nM
CCC(=O)N1CCC(c2ccc(C(=O)NCc3ccn4ccnc4c3)cc2)CC1 [Example 532, N-(imidazo[1,2-a]pyridin-7-ylmethyl)-4-(1-propanoylpiperidin-4-yl)benzamide]	92.7 nM	338 nM	0.178 nM
Cn1nccc1-c1ccc(C(=O)NCc2ccn3ccnc3c2)s1 [Example 363, N-(imidazo[1,2-a]pyridin-7-ylmethyl)-5-(1-methyl-1H-pyrazol-5-yl)thiophene-2-carboxamide]	7660 nM	588 nM	0.305 nM
CCCC(=O)N1CCC(c2ccc(C(=O)NCc3ccn4ccnc4c3)cc2)CC1 [Example 505, 4-(1-butanoylpiperidin-4-yl)-N-(imidazo[1,2-a]pyridin-7-ylmethyl)benzamide]	30.5 nM	253 nM	0.355 nM
O=C(NCc1ccn2ccnc2c1)c1ccc(C2(O)CN(C(=O)CC3CCOCC3)C2)s1 [Example 406, 5-[3-hydroxy-1-(tetrahydro-2H-pyran-4-ylacetyl)azetidin-3-yl]-N-(imidazo[1,2-a]pyridin-7-ylmethyl)thiophene-2-carboxamide]	347 nM	1140 nM	0.505 nM
O=C(NCc1ccc2nccn2c1)c1cnc(N2CC(c3ccc(Cl)cc3)OC2=O)s1 (stereo not drawn) [Example 158, 2-[5-(4-chlorophenyl)-2-oxo-1,3-oxazolidin-3-yl]-N-(imidazo[1,2-a]pyridin-6-ylmethyl)-1,3-thiazole-5-carboxamide]	191 nM	341 nM	6.39 nM
O=C(NCc1ccn2ccnc2c1)c1ccc(-c2cnn(CC(F)(F)F)c2)o1 [Example 738, N-(imidazo[1,2-a]pyridin-7-ylmethyl)-5-[1-(2,2,2-trifluoroethyl)-1H-pyrazol-4-yl]furan-2-carboxamide]	85.9 nM	364 nM	0.705 nM
CC(C)C(=O)N1CCC(c2ncc(C(=O)NCc3ccn4ccnc4c3)s2)CC1 [Example 543, N-(imidazo[1,2-a]pyridin-7-ylmethyl)-2-[1-(2-methylpropanoyl)piperidin-4-yl]-1,3-thiazole-5-carboxamide]	386 nM	1480 nM	0.383 nM
